As usually defined, the solubility is how much of the substance goes into solution per volume. The low end stands for a poorly soluble substance, the high end for a readily soluble substance.

In brackets after ≈: the same amount, converted by molar mass.

From patent US20030092695A1, “Metal salts of 3-methyl-chromane or thiochromane derivatives” (priority 1999, published 2003) come the findings set out here.

The subject of series [1] is increase in uterus weight by stimulus with estradiol. The experiment in a line: Anti-estrogenic activity via oral administration (inhibition of estradiol-stimulated uterus weight increase). It is filed as in vivo. The note with it: ovariectomized ICR mice, 17β-estradiol-benzoate 0.1 μg/day s.c. for 3 days, 10 mg/kg p.o., once a day, in 5% arabic gum. The method, then: Oral anti-estrogenic activity in vivo of the test compound was determined according to the method described hereinafter.
In this experiment, the test compound or the control compound was suspended in 5% arabic gum solution and orally administered for 3 days, once a day. After 24 hours from the last administration, the test animal was sacrificed and uterus was removed and weighed.

Series [2] is described as follows: Solubility test in FaSSIF or water, shaken at 37° C., filtrate measured by HPLC.
Method: The degree of improvement in solubility was determined by measuring the solubility of the test compound as follows.
To 1 mg of each compound was added 2 ml of FaSSIF (artificial intestinal juice, bile) or water, which was then shaken at 37° C. After 1, 2 and 20 hours, 200 μm of sample was taken and filtered. The concentration of the filtrate was measured by HPLC and the results are described in the following Table 2.
The mark [3] stands for this setting: FaSSIF, 37 °C, thermodynamic from solid.

As for `C[C@@]1(c2ccc(O)cc2)CSc2cc(O)ccc2[C@@H]1CCCCCCCCC(CCCC(F)(F)C(F)(F)F)C(=O)[O-].[Na+]` (mixture of isomers) [Example 1, Sodium (3′RS,4′RS)-10-[7-hydroxy-3-(4-hydroxyphenyl)-3-methylthiochroman-4-yl]-2-(4,4,5,5,5-pentafluoropentyl)decanoate], the “Inhibition (%) of the increase in uterus weight by estradiol” value (shortened to “Inhibition (%) of the increase”) in series [1] was determined as 74%.
On to `CC1(c2ccc(O)cc2)CSc2cc(O)ccc2C1CCCCCCCCC(CCCC(F)(F)C(F)(F)F)C(=O)O` (stereo not drawn) [(3′RS,4′RS)-10-[7-Hydroxy-3-(4-hydroxyphenyl)-3-methylthiochroman-4-yl]-2-(4,4,5,5,5-pentafluoropentyl)decanoic Acid], for which the “Inhibition (%) of the increase” value in series [1] was found to be 79%.
Consider `C[C@]12CC[C@@H]3c4ccc(O)cc4C[C@@H](CCCCCCCCC[S+]([O-])CCCC(F)(F)C(F)(F)F)[C@H]3[C@@H]1CC[C@@H]2O` (stereo partly shown) [ICI182,780], for which, in series [2] (setting [3]), the solubility at 1 h was 0.365 µg/mL (≈ 0.602 µM), the concentration in solution (solubility at 2 h) came to 0.474 µg/mL (≈ 0.781 µM) and the solubility at 20 h came to 1.7 µg/mL (≈ 2.8 µM). For the same compound, in series [2] (water as the solvent), the “Solubility in water (in words)” value was “can hardly be solved in water”. Further, in series [1], the “Inhibition (%) of the increase” value was determined as 69%.
